Laboratory results published in patent US12337024B2, “Larazotide formulations” (Interlude Biopharma Co., priority 2019, dated 2025).
Like-named read-outs stand apart in the source and are kept apart here. Ends that are not written are not given here.

Experiments:
tight junction = experiment: Activity as tight junction regulators
celiac disease symptoms = details: clinical trials, cited from earlier work
mice on the Western diet = test system: mice on the Western diet
Protocol: 77 DIAMOND™ mice were placed on either normal chow (NDNW) or Western Diet (WDSW) and aged up to 8, 20, 28, 36, and 40 weeks, then dosed with 4 kDa FITC-dextran at 600 mg/kg body weight by gavage. Four hours after the dosing, at least 20 μL of serum was taken by tail vein nick. A competition ELISA, which measures small dextran polymers (conjugated or unconjugated), was used to quantify serum dextran concentration.
The subsequent experiment evaluated the effects of orally administered larazotide acetate to mice on the Western diet. The study design is depicted in FIG. 2. Specifically, 8 groups of mice were placed on WDSW diets for 16 weeks and administered larazotide (dosed in drinking water or oral gavage), pioglitazone comparator, or vehicle from 8-16 weeks. Improvement in leaky gut was assessed by dosing the mice with unconjugated dextran at 600 mg/kg via oral gavage at baseline and end of study, serum was collected 4 hours later, and serum dextran concentrations were measured.

Substance: GGVLVQPG [larazotide]
- activity as tight junction regulator when mixed with fragments (tight junction; full length larazotide mixed with fragments GVLVQPG and VLVQPG): activity is completely abolished
- reduction of celiac disease symptoms (celiac disease symptoms; higher doses (e.g., 1 mg and 2 mg doses)): attenuation of activity, or no activity at all
- reduction of celiac disease symptoms (celiac disease symptoms; lower doses (e.g., 0.5 mg dose)): benefit at reducing celiac disease symptoms
- gut integrity (mice on the Western diet; mice on Western diet, larazotide from 8-16 weeks, drinking water or oral gavage, FIG. 3): improved gut integrity

Substance: GVLVQPG (Synthetic polymer) [larazotide-derived fragment missing N-terminal glycine residue]
- activity as tight junction regulators (tight junction): inactive

Substance: VLVQPG (Synthetic polymer) [larazotide-derived fragment missing N-terminal glycine residues]
- activity as tight junction regulators (tight junction): inactive

Substance: larazotide acetate
- serum dextran concentrations (mice on the Western diet; mice on Western diets, various doses, serum 4 hours after dextran 600 mg/kg gavage): successful in lowering the serum dextran concentrations
